In patent publication US7704995B2 (Exelixis, Inc., priority 2003, dated 2010):
pIC50: −log10 of the molar value. Like-named read-outs stand apart in the source and are kept apart here.

Biological target: T1, Chk1 (Homo sapiens, UniProt O14757)
T1 construct: purchased Upstate Biotechnology
T1 sequence (O14757 1-476): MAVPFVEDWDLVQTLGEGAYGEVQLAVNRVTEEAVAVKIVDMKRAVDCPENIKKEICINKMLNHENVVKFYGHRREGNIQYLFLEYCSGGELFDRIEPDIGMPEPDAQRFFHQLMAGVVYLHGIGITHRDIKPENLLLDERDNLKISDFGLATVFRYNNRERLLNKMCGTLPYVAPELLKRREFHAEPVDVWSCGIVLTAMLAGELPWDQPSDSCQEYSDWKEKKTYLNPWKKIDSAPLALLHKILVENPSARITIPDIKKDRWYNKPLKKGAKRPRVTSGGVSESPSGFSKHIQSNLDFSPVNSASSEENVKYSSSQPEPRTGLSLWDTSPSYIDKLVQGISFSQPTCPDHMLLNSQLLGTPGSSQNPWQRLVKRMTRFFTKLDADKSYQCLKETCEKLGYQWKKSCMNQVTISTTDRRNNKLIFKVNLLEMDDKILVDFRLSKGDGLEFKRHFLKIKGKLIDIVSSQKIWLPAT
Assay: Chk1 kinase assay: incorporation of γ-33P ATP into immobilized myelin basic protein
Assay type: biochemical
Conditions: read-out: Chk1 IC50
Outline: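 Read-out is scintillation counting of 33P incorporated into plate-bound myelin basic protein. Chk1 runs at 10 nM enzyme with 10 μM ATP, Chk2 at 20 nM with 30 μM ATP, each for 1 hour at room temperature. Duplicate points; IC50 taken as 50% activity reduction, Ki computed from IC50.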

[1] = Table 11, Chk1 only, class symbols A-D

SMILES	pIC50 (Table 11, Chk1 only)	pIC50	also measured
CNC(=O)c1cc(-c2cccc(CNC3CCc4c(Cl)cccc43)c2)cnc1N (centres unmarked) [Example 522, 2-amino-5-(3-{[(4-chloro-2,3-dihydro-1H-inden-1-yl)amino]methyl}phenyl)-N-methylpyridine-3-carboxamide]	6.00 to 7.30		
CCCc1ccc(CNCc2cccc(-c3cnc(N)c(C(=O)NC)n3)c2)cc1 [Example 443, 3-amino-N-methyl-6-[3-({[(4-propylphenyl)methyl]amino}methyl)phenyl]pyrazine-2-carboxamide]	6.00 to 7.30		
CNC(=O)c1nc(-c2cccc(C(=O)NNc3c(F)c(F)c(C)c(F)c3F)c2)cnc1N [Example 431, 3-amino-N-methyl-6-(3-{[2-(2,3,5,6-tetrafluoro-4-methylphenyl)hydrazino]carbonyl}phenyl)pyrazine-2-carboxamide]	6.00 to 7.30		
CC(C)(C)OC(=O)N1CC[C@@H](CNC(=O)c2nc(-c3cccc(C(=O)N[C@@H]4c5ccccc5C[C@@H]4O)c3)cnc2N)C1 [Example 769, 1,1-dimethylethyl (3S)-3-{[({3-amino-6-[3-({[(1R,2S)-2-hydroxy-2,3-dihydro-1H-inden-1-yl]amino}carbonyl)phenyl]pyrazin-2-yl}carbonyl)amino]methyl}pyrrolidine-1-carboxylate]	≤ 5.00		
Nc1ncc(-c2cccc(C(=O)NCc3ccccc3)c2)nc1C(=O)NCCNS(=O)(=O)c1cccc2cccnc12 [Example 662, 3-amino-6-(3-{[(phenylmethyl)amino]carbonyl}phenyl)-N-{2-[(quinolin-8-ylsulfonyl)amino]ethyl}pyrazine-2-carboxamide]	≤ 5.00		
CNC(=O)c1nc(-c2cccc(C(=O)NCc3ccc(O)cc3)c2)cnc1N [Example 323, 3-amino-6-[3-({[(4-hydroxyphenyl)methyl]amino}carbonyl)phenyl]-N-methylpyrazine-2-carboxamide]		6.00 to 7.30	
CNC(=O)c1nc(-c2cccc(OCCN(C)Cc3ccccc3)c2)cnc1N [Example 183, 3-amino-N-methyl-6-[3-({2-[methyl(phenylmethyl)amino]ethyl}oxy)phenyl]pyrazine-2-carboxamide]		6.00 to 7.30	
Nc1ncc(-c2cccc(NC(=O)c3cccnc3)c2)nc1C(=O)N[C@H]1CCCNC1 [Example 981, 3-amino-N-[(3S)-piperidin-3-yl]-6-{3-[(pyridin-3-ylcarbonyl)amino]phenyl}pyrazine-2-carboxamide]			pIC50 [1]: > 7.30
Nc1ncc(-c2cccc(C(=O)NCc3ccc(F)c(Cl)c3)c2)nc1C(=O)N[C@H]1CCCCNC1 [Example 1023, 3-amino-N-[(3S)-azepan-3-yl]-6-[3-({[(3-chloro-4-fluorophenyl)methyl]amino}carbonyl)phenyl]pyrazine-2-carboxamide]			pIC50 [1]: > 7.30
Nc1ncc(-c2cccc(CNC(=O)c3ccc(Br)cc3F)c2)nc1-c1nc([C@H]2CCCNC2)n[nH]1 [Example 944, N-{[3-(5-amino-6-{3-[(3S)-piperidin-3-yl]-1H-1,2,4-triazol-5-yl}pyrazin-2-yl)phenyl]methyl}-4-bromo-2-fluorobenzamide]			pIC50 [1]: > 7.30
CNC(=O)c1nc(-c2cccc(C(=O)NCc3c(F)cccc3F)c2)cnc1N [Example 338, 3-amino-6-[3-({[(2,6-difluorophenyl)methyl]amino}carbonyl)phenyl]-N-methylpyrazine-2-carboxamide]		6.00 to 7.30	
CNC(=O)c1nc(-c2cccc(C(=O)NCc3cc(F)cc(F)c3)c2)cnc1N [Example 339, 3-amino-6-[3-({[(3,5-difluorophenyl)methyl]amino}carbonyl)phenyl]-N-methylpyrazine-2-carboxamide]		> 7.30	
CNC(=O)c1nc(-c2cccc(OCCN3CCCC3)c2)cnc1N [Example 191, 3-amino-N-methyl-6-{3-[(2-pyrrolidin-1-ylethyl)oxy]phenyl}pyrazine-2-carboxamide]		6.00 to 7.30	
Nc1ncc(-c2cccc(C(=O)NCc3ccccc3)c2)nc1C(=O)N1CCN(c2ccc(F)cc2)CC1 [Example 574, 3-(5-amino-6-{[4-(4-fluorophenyl)piperazin-1-yl]carbonyl}pyrazin-2-yl)-N-(phenylmethyl)benzamide]	≤ 5.00		
CNC(=O)c1nc(-c2cccc(CN[C@H]3Cc4ccc(Br)cc4C3)c2)cnc1N [Example 465, 3-amino-6-[3-({[(2S)-5-bromo-2,3-dihydro-1H-inden-2-yl]amino}methyl)phenyl]-N-methylpyrazine-2-carboxamide]	> 7.30		
CNC(=O)c1nc(-c2cccc(CNC3CC(C)c4c(F)ccc(F)c43)c2)cnc1N (centres unmarked) [Example 459, 3-amino-6-(3-{[(4,7-difluoro-3-methyl-2,3-dihydro-1H-inden-1-yl)amino]methyl}phenyl)-N-methylpyrazine-2-carboxamide]	6.00 to 7.30		
Nc1ncc(-c2cccc(C(=O)NCc3ccc(F)cc3F)c2)nc1-c1nc([C@H]2CCCNC2)n[nH]1 [Example 865, 3-(5-amino-6-{3-[(3S)-piperidin-3-yl]-1H-1,2,4-triazol-5-yl}pyrazin-2-yl)-N-[(2,4-difluorophenyl)methyl]benzamide]			pIC50 [1]: > 7.30
CNC(=O)c1nc(-c2cccc(C(=O)NCc3ccc(C)cc3)c2)cnc1N [Example 101, 3-amino-N-methyl-6-[3-({[(4-methylphenyl)methyl]amino}carbonyl)phenyl]pyrazine-2-carboxamide]		6.00 to 7.30	
NCc1cccc(-c2cnc(N)c(C(=O)N[C@H]3CCCNC3)n2)c1 [Example 839, 3-amino-6-[3-(aminomethyl)phenyl]-N-[(3S)-piperidin-3-yl]pyrazine-2-carboxamide]			pIC50 [1]: > 7.30
CCn1nc(-c2nc(-c3cccc(C(=O)N[C@H]4CCc5ccccc54)c3)cnc2N)nc1[C@@H]1CCCN(C(=O)OCc2ccccc2)C1 [Example 749, phenylmethyl (3R)-3-{3-[3-amino-6-(3-{[(1S)-2,3-dihydro-1H-inden-1-ylamino]carbonyl}phenyl)pyrazin-2-yl]-1-ethyl-1H-1,2,4-triazol-5-yl}piperidine-1-carboxylate]	≤ 5.00		
CNC(=O)c1nc(-c2cccc(C(=O)N[C@@H]3c4ccccc4C[C@@H]3O)c2)cnc1N [Example 140, 3-amino-6-[3-({[(1R,2S)-2-hydroxy-2,3-dihydro-1H-inden-1-yl]amino}carbonyl)phenyl]-N-methylpyrazine-2-carboxamide]		6.00 to 7.30	
Nc1ncc(-c2cccc(NC(=O)Cc3cccc(F)c3)c2)nc1C(=O)N[C@H]1CCCNC1 [Example 979, 3-amino-6-(3-{[(3-fluorophenyl)acetyl]amino}phenyl)-N-[(3S)-piperidin-3-yl]pyrazine-2-carboxamide]			pIC50 [1]: > 7.30
Nc1ncc(-c2cccc(C(=O)NCc3ccccc3)c2)nc1C(=O)N1CCNCC1 [Example 593, 3-[5-amino-6-(piperazin-1-ylcarbonyl)pyrazin-2-yl]-N-(phenylmethyl)benzamide]	≤ 5.00		

Further lines, with some results ahead:

pIC50 (Table 11, Chk1 only)	pIC50	SMILES	also measured
	6.00 to 7.30	CNC(=O)c1nc(-c2cccc(C(=O)NCCc3ccccc3Cl)c2)cnc1N [Example 129, 3-amino-6-[3-({[2-(2-chlorophenyl)ethyl]amino}carbonyl)phenyl]-N-methylpyrazine-2-carboxamide]	
	6.00 to 7.30	CNC(=O)c1nc(-c2cccc(CNCc3ccc(Cl)cc3F)c2)cnc1N [Example 425, 3-amino-6-[3-({[(4-chloro-2-fluorophenyl)methyl]amino}methyl)phenyl]-N-methylpyrazine-2-carboxamide]	
5.00 to 6.00		Nc1ncc(-c2cccc(CN[C@H]3CCc4ccccc43)c2)nc1C(=O)NCc1ccncc1 [Example 534, 3-amino-6-(3-{[(1S)-2,3-dihydro-1H-inden-1-ylamino]methyl}phenyl)-N-(pyridin-4-ylmethyl)pyrazine-2-carboxamide]	
≤ 5.00		CC(=NNc1ccc([N+](=O)[O-])cc1)c1nc(-c2cccc(C(=O)NCc3ccccc3)c2)cnc1N [Example 635, 3-(5-Amino-6-{1-[(4-nitro-phenyl)-hydrazono]-ethyl}-pyrazin-2-yl)-N-benzyl-benzamide]	
5.00 to 6.00		Cc1nnc(-c2nc(-c3cccc(CO)c3)cnc2N)[nH]1 [Example 550, {3-[5-amino-6-(5-methyl-4H-1,2,4-triazol-3-yl)pyrazin-2-yl]phenyl}methanol]	
6.00 to 7.30		CNC(=O)c1nc(-c2cc(C(=O)NC3CCNC3)cc(C(=O)N[C@H]3CCc4ccccc43)c2)cnc1N (stereo partly drawn) [Example 791, 5-{5-amino-6-[(methylamino)carbonyl]pyrazin-2-yl}-N-[(1S)-2,3-dihydro-1H-inden-1-yl]-N′-pyrrolidin-3-ylbenzene-1,3-dicarboxamide]	
≤ 5.00		Nc1ncc(-c2cccc(C(=O)NCc3ccccc3)c2)nc1C(=O)NCCCNC(=O)c1cnc2ccccc2n1 [Example 651, N-[3-({[3-amino-6-(3-{[(phenylmethyl)amino]carbonyl}phenyl)pyrazin-2-yl]carbonyl}amino)propyl]quinoxaline-2-carboxamide]	
	6.00 to 7.30	CNC(=O)c1nc(-c2ccc(C(=O)N[C@H]3CCc4ccccc43)cc2)cnc1N [Example 154, 3-amino-6-(4-{[(1S)-2,3-dihydro-1H-inden-1-ylamino]carbonyl}phenyl)-N-methylpyrazine-2-carboxamide]	
6.00 to 7.30		Nc1ncc(-c2cccc(CO)c2)nc1-c1nnc(-c2ccco2)[nH]1 [Example 570, {3-[5-amino-6-(5-furan-2-yl-4H-1,2,4-triazol-3-yl)pyrazin-2-yl]phenyl}methanol]	
